pEC50, pIC50: −log10 of the molar value.
Experiments:
[1] = target: Human immunodeficiency virus type 1 reverse transcriptase (Human immunodeficiency virus 1, UniProt Q72547); assay: Inhibition of wild type HIV1 reverse transcriptase using poly (A)/oligo (dT)15 as template/primer assessed as decrease in biotin-dUTP incorporation after 1 hr by ELISA
[2] = tested on: Human immunodeficiency virus 2; assay: Antiviral activity against HIV2 ROD infected in human MT4 cells assessed as protection against virus-induced cytopathic effect after 5 days by MTT assay; type: functional, organism-based; conditions: Human immunodeficiency virus 2, ISOLATE ROD, MT4, 120 h
[3] = Cytotoxicity against human MT4 cells assessed as reduction in cell viability after 5 days by MTT assay; type: cell-based
[4] = tested on: Human immunodeficiency virus 1; assay: Antiviral activity against HIV1 harboring reverse transcriptase L100I mutant infected in human MT4 cells assessed as protection against virus-induced cytopathic effect after 5 days by MTT assay; type: functional, organism-based; conditions: Human immunodeficiency virus 1, MT4, 120 h
[5] = tested on: Human immunodeficiency virus 1; assay: Antiviral activity against HIV1 harboring reverse transcriptase K103N mutant infected in human MT4 cells assessed as protection against virus-induced cytopathic effect after 5 days by MTT assay; type: functional, organism-based; conditions: Human immunodeficiency virus 1, MT4, 120 h
[6] = tested on: Human immunodeficiency virus 1; assay: Antiviral activity against HIV1 harboring reverse transcriptase Y181C mutant infected in human MT4 cells assessed as protection against virus-induced cytopathic effect after 5 days by MTT assay; type: functional, organism-based; conditions: Human immunodeficiency virus 1, MT4, 120 h
[7] = tested on: Human immunodeficiency virus 1; assay: Antiviral activity against HIV1 harboring reverse transcriptase Y188L mutant infected in human MT4 cells assessed as protection against virus-induced cytopathic effect after 5 days by MTT assay; type: functional, organism-based; conditions: Human immunodeficiency virus 1, MT4, 120 h
[8] = tested on: Human immunodeficiency virus 1; assay: Antiviral activity against HIV1 harboring reverse transcriptase E138K mutant infected in human MT4 cells assessed as protection against virus-induced cytopathic effect after 5 days by MTT assay; type: functional, organism-based; conditions: Human immunodeficiency virus 1, MT4, 120 h
[9] = tested on: Human immunodeficiency virus 1; assay: Antiviral activity against HIV1 harboring reverse transcriptase F227L/V106A double mutant infected in human MT4 cells assessed as protection against virus-induced cytopathic effect after 5 days by MTT assay; type: functional, organism-based; conditions: Human immunodeficiency virus 1, MT4, 120 h
[10] = tested on: Human immunodeficiency virus 1; assay: Antiviral activity against HIV1 harboring reverse transcriptase RES056 double mutant infected in human MT4 cells assessed as protection against virus-induced cytopathic effect after 5 days by MTT assay; type: functional, organism-based; conditions: Human immunodeficiency virus 1, MT4, 120 h
[11] = target: Human immunodeficiency virus type 1 reverse transcriptase (Human immunodeficiency virus 1, UniProt Q72547, K103N/Y181C); assay: Inhibition of HIV1 reverse transcriptase K103N/Y181C double mutant using poly (A)/oligo (dT)15 as template/primer assessed as decrease in biotin-dUTP incorporation after 1 hr by ELISA
in vitro = conditions: human, MT4 cells
Description: Selectivity index, ratio of CC50 for human MT4 cells to EC50 for wild type HIV1 3B infected in human MT4 cells

[12] = tested on: Human immunodeficiency virus 1; assay: microbe, parasite or virus in culture; conditions: Human immunodeficiency virus 1, 3B, MT4, 120 h
Description: Antiviral activity against wild type HIV1 3B infected in human MT4 cells assessed as protection against virus-induced cytopathic effect after 5 days by MTT assay

Compound: Cc1cc(/C=C/C#N)cc(C)c1Oc1cc(NCCN2CCN(C)CC2)nc(Nc2ccc(C#N)cc2)c1
- pIC50 [1]: 5.66
- pEC50 [2]: < 5.10
- CC50 at 120 h [3]: 7960 nM
- pEC50 [4]: 5.69
- pEC50 [5]: 7.55
- pEC50 [6]: 5.84
- pEC50 [7]: < 5.10
- pEC50 [8]: 6.11
- pEC50 [9]: 5.24
- pEC50 [10]: 5.88
- pIC50 [11]: 5.20
- selectivity ratio (in vitro): 321
- pEC50 [12]: 7.61

Compound: C=CCNc1cc(Oc2c(C)cc(/C=C/C#N)cc2C)cc(Nc2ccc(C#N)cc2)n1
- pIC50 [1]: 6.57
- pEC50 [2]: < 4.09
- CC50 at 120 h [3]: 82100 nM
- pEC50 [4]: 6.20
- pEC50 [5]: 7.57
- pEC50 [6]: 5.96
- pEC50 [7]: < 4.09
- pEC50 [8]: 7.37
- pEC50 [9]: ≤ 4.24
- pEC50 [10]: 4.52
- pIC50 [11]: 4.50
- selectivity ratio (in vitro): 8220
- pEC50 [12]: 8.00

Compound: Cc1cc(/C=C/C#N)cc(C)c1Oc1cc(NCCC#N)nc(Nc2ccc(C#N)cc2)n1
- pIC50 [1]: 7.70
- pEC50 [2]: 6.49
- CC50 at 120 h [3]: 1000 nM
- pEC50 [4]: 7.96
- pEC50 [5]: 8.92
- pEC50 [6]: 8.00
- pEC50 [7]: 7.51
- pEC50 [8]: 8.19
- pEC50 [9]: 6.72
- pEC50 [10]: 7.85
- pIC50 [11]: 7.00
- selectivity ratio (in vitro): 736
- pEC50 [12]: 8.87

Compound: COCCNc1cc(Oc2c(C)cc(/C=C/C#N)cc2C)nc(Nc2ccc(C#N)cc2)n1
- pIC50 [1]: 7.40
- pEC50 [2]: 5.81
- CC50 at 120 h [3]: 3190 nM
- pEC50 [4]: 8.03
- pEC50 [5]: 8.77
- pEC50 [6]: 8.03
- pEC50 [7]: 7.29
- pEC50 [8]: 8.19
- pEC50 [9]: 6.66
- pEC50 [10]: 7.38
- pIC50 [11]: 6.64
- selectivity ratio (in vitro): 2040
- pEC50 [12]: 8.81

Compound: C=CCNc1cc(Oc2c(C)cc(/C=C/C#N)cc2C)nc(Nc2ccc(C#N)cc2)n1
- pIC50 [1]: 7.52
- pEC50 [2]: < 5.52
- CC50 at 120 h [3]: 3050 nM
- pEC50 [4]: 7.68
- pEC50 [5]: 8.32
- pEC50 [6]: 7.89
- pEC50 [7]: 7.25
- pEC50 [8]: 8.36
- pEC50 [9]: 6.28
- pEC50 [10]: 7.36
- pIC50 [11]: 6.72
- selectivity ratio (in vitro): 2000
- pEC50 [12]: 8.82

Compound: Cc1cc(/C=C/C#N)cc(C)c1Oc1cc(NCCN2CCOCC2)nc(Nc2ccc(C#N)cc2)c1
- pIC50 [1]: 6.13
- pEC50 [2]: < 4.38
- CC50 at 120 h [3]: 43200 nM
- pEC50 [4]: 6.62
- pEC50 [5]: 8.77
- pEC50 [6]: 6.66
- pEC50 [7]: < 4.36
- pEC50 [8]: 7.11
- pEC50 [9]: 5.35
- pEC50 [10]: 6.37
- pIC50 [11]: 5.20
- selectivity ratio (in vitro): 25600
- pEC50 [12]: 8.77

Compound: Cc1cc(/C=C/C#N)cc(C)c1Oc1cc(Cl)nc(Nc2ccc(C#N)cc2)c1
- pIC50 [1]: 6.74
- pEC50 [2]: < 3.51
- CC50 at 120 h [3]: > 312000 nM
- pEC50 [4]: 6.15
- pEC50 [5]: 7.48
- pEC50 [6]: 5.93
- pEC50 [7]: < 3.51
- pEC50 [8]: 7.37
- pEC50 [9]: < 3.51
- pEC50 [10]: < 3.51
- selectivity ratio (in vitro): > 39900
- pEC50 [12]: 8.11

Compound: Cc1cc(/C=C/C#N)cc(C)c1Oc1cc(NCCCN2CCOCC2)nc(Nc2ccc(C#N)cc2)c1
- pIC50 [1]: 6.01
- pEC50 [2]: ≤ 5.33
- CC50 at 120 h [3]: ≥ 4720 nM
- pEC50 [4]: 6.28
- pEC50 [5]: 8.25
- pEC50 [6]: 6.12
- pEC50 [7]: ≤ 5.33
- pEC50 [8]: 6.96
- pEC50 [9]: 5.30
- pEC50 [10]: 6.15
- pIC50 [11]: 5.11
- selectivity ratio (in vitro): ≥ 992
- pEC50 [12]: 8.32

Compound: COC(CNc1cc(Oc2c(C)cc(/C=C/C#N)cc2C)nc(Nc2ccc(C#N)cc2)n1)OC
- pIC50 [1]: 6.77
- CC50 at 120 h [3]: 3470 nM

Compound: Cc1cc(/C=C/C#N)cc(C)c1Oc1cc(Nc2ccc(C#N)cc2)nc(NC2CC2)c1
- pIC50 [1]: 6.46
- pEC50 [2]: < 4.61
- CC50 at 120 h [3]: 24800 nM
- pEC50 [4]: 6.77
- pEC50 [5]: 8.10
- pEC50 [6]: 6.68
- pEC50 [7]: < 4.61
- pEC50 [8]: 7.57
- pEC50 [9]: 5.27
- pEC50 [10]: 5.55
- pIC50 [11]: 5.27
- selectivity ratio (in vitro): 7400
- pEC50 [12]: 8.47

Compound: COCCNc1cc(Oc2c(C)cc(/C=C/C#N)cc2C)cc(Nc2ccc(C#N)cc2)n1
- pIC50 [1]: 6.04
- pEC50 [2]: < 4.24
- CC50 at 120 h [3]: 58200 nM
- pEC50 [4]: 6.13
- pEC50 [5]: 7.55
- pEC50 [6]: 5.86
- pEC50 [7]: 4.38
- pEC50 [8]: 7.24
- pEC50 [9]: 4.65
- pEC50 [10]: 5.32
- pIC50 [11]: 4.74
- selectivity ratio (in vitro): 9330
- pEC50 [12]: 8.20

Compound: Cc1cc(/C=C/C#N)cc(C)c1Oc1cc(NCC2CCCO2)nc(Nc2ccc(C#N)cc2)c1 (stereo not drawn)
- pIC50 [1]: 6.20
- pEC50 [2]: < 4.13
- CC50 at 120 h [3]: 73600 nM
- pEC50 [4]: 5.59
- pEC50 [5]: 7.32
- pEC50 [6]: 5.34
- pEC50 [7]: < 4.13
- pEC50 [8]: 6.77
- pEC50 [9]: < 4.13
- pEC50 [10]: 4.50
- pIC50 [11]: 4.39
- selectivity ratio (in vitro): 2560
- pEC50 [12]: 7.54

Compound: Cc1cc(/C=C/C#N)cc(C)c1Oc1cc(NCCN(C)C)nc(Nc2ccc(C#N)cc2)c1
- pIC50 [1]: 6.08
- pEC50 [2]: < 5.37
- CC50 at 120 h [3]: 4270 nM
- pEC50 [4]: 6.72
- pEC50 [5]: 8.57
- pEC50 [6]: 6.74
- pEC50 [7]: < 5.37
- pEC50 [8]: 6.01
- pEC50 [9]: < 5.37
- pEC50 [10]: 6.64
- pIC50 [11]: 5.61
- selectivity ratio (in vitro): 2240
- pEC50 [12]: 8.72

Compound: O=C1Nc2ccc(Cl)cc2[C@@](C#CC2CC2)(C(F)(F)F)O1 [EFAVIRENZ]
- CC50 at 120 h [3]: > 6340 nM
- pEC50 [4]: 7.33
- pEC50 [5]: 6.96
- pEC50 [6]: 8.22
- pEC50 [7]: 6.89
- pEC50 [8]: 7.31
- pEC50 [9]: 6.92
- pEC50 [10]: 6.96

Compound: Cc1cc(C#N)cc(C)c1Oc1nc(Nc2ccc(C#N)cc2)nc(N)c1Br [ETRAVIRINE]
- pEC50 [4]: 8.00
- pEC50 [6]: 7.70
- pEC50 [7]: 7.68
- pEC50 [9]: 7.62
- pEC50 [10]: 7.59

Compound: Cc1ccnc2c1NC(=O)c1cccnc1N2C1CC1 [NEVIRAPINE]
- CC50 at 120 h [3]: > 15000 nM
- pEC50 [4]: 5.49
- pEC50 [5]: 4.99
- pEC50 [8]: 6.55
- pEC50 [10]: < 4.82
- pEC50 [12]: 6.90

Compound: Cc1cn([C@H]2C[C@H](N=[N+]=[N-])[C@@H](CO)O2)c(=O)[nH]c1=O [ZIDOVUDINE]
- pEC50 [2]: 8.09
- CC50 at 120 h [3]: > 7480 nM
- pEC50 [6]: 8.22
- pEC50 [8]: 7.74
- pEC50 [10]: 7.92
- selectivity ratio (in vitro): > 658
- pEC50 [12]: 7.94

Reference: ChEMBL document CHEMBL4219160, “The discovery of novel diarylpyri(mi)dine derivatives with high level activity against a wide variety of HIV-1 strains as well as against HIV-2” (Bioorg Med Chem, 2018)
